Test results reported in paper PMC5206802 (Journal of medicinal chemistry, 2016).

Tests used:
Assay type in all cases: cell-based
HIV-1 NL4-3 = assay: Inhibition of HIV-1 infection of TZM-bl cells; conditions: wild-type NL4-3
[1] = system: HIV-1 A17 (K103N and Y181C); assay: microbe, parasite or virus in culture; conditions: Human immunodeficiency virus 1, MT2, read-out: EC50 A17
MT-2 cells = system: MT-2 cells
HIV-1 IIIB = assay: HIV-1 infection assay using MT-2 cells; conditions: Human immunodeficiency virus 1, IIIB, MT2, read-out: EC50 IIIB

Compound | fold less potent than the corresponding bromo/methoxy-DAANs (14c and 14d) (HIV-1 NL4-3) | EC50 [1] [nM] | SI (selective index) CC50/EC50(IIIB) (MT-2 cells) | EC50 (HIV-1 IIIB) [nM]
COC(=O)c1cc(N)c(Nc2ccc(C#N)cc2)cc1Oc1c(OC)cc(CCC#N)cc1OC [Compound 13c, 5-[4″-(2-Cyanoethyl)-2″,6″-dimethoxyphenoxy]-N^1-(4′-cyanophenyl)-4-methoxycarbonylbenzene-1,2-diamine] | at least 20 fold |  |  | 
CNC(=O)c1cc(N)c(Nc2ccc(C#N)cc2)cc1Oc1c(OC)cc(CCC#N)cc1OC [Compound 13d, 5-[4″-(2-Cyanoethyl)-2″,6″-dimethoxyphenoxy]-N^1-(4′-cyanophenyl)-4-methylcarbamoylbenzene-1,2-diamine] | at least 20 fold |  |  | 
COCc1cc(N)c(Nc2ccc(C#N)cc2)cc1Oc1c(C)cc(CCC#N)cc1C [Compound 6k, 5-[4″-(2-Cyanoethyl)-2″,6″-dimethylphenoxy]-N^1-(4′-cyanophenyl)-4-methoxymethylbenzene-1,2-diamine] |  | 2.95 ± 0.5 | >61,538 | 3.25 ± 0.23
CC(=O)OCc1cc(N)c(Nc2ccc(C#N)cc2)cc1Oc1c(C)cc(CCC#N)cc1C [Compound 6h, 4-Acetoxymethyl-5-[4″-(2-cyanoethyl)-2″,6″-dimethylphenoxy]-N^1-(4′-cyanophenyl)benzene-1,2-diamine] |  | 4.92 ± 0.12 | 46,667 | 0.96 ± 0.12
